Drawing on patent US6114327A, “Anti-viral compounds” (Eli Lilly and Company, priority 1999, dated 2000), this text covers IC50 for eleven compounds.

Structures are written as SMILES. Values after ≈ are worked out from the molar mass of the structure shown.

The test concerns rhinovirus, HRV-14. Put plainly: Anti-picornaviral plaque reduction assay. The format is cell-based. Particulars: Rhinovirus B, HRV14, Table 1, 50% inhibition of plaque formation, BSC-1 or Hela cells, 120 hours at 32° C., trans isomer.
For the compound `CC(C)S(=O)(=O)n1c(N)nc2ccc(/C(=C/[S+](C)[O-])c3ccccc3)cc21` (centres unmarked) [10 (parent), reference compound], the IC50 is 3.52 µg/mL (≈ 8.72 µM). As for `CC(C)S(=O)(=O)n1c(N)nc2ccc(/C(=C/S(C)(=O)=O)c3cccc(F)c3F)cc21` [Example 8, Trans 1-Isopropylsulfonyl-2-Amino-6-(1-[2,3-Difluorophenyl]-2-Methylsulfonylethen-1-yl)benzimidazole], the IC50 was determined as 0.05 µg/mL (≈ 0.11 µM). Consider `CC(C)S(=O)(=O)n1c(N)nc2ccc(/C(=N/O)c3cccc(F)c3F)cc21` [Example 13, Trans 1-Isopropylsulfonyl-2-Amino-6-(1-[2,3-Difluorophenyl]oximyl)benzimidazole], for which the IC50 turned out to be 0.051 µg/mL (≈ 0.129 µM).

`CC(=O)/C=C(\c1ccc(F)cc1)c1ccc2nc(N)n(S(=O)(=O)C(C)C)c2c1` [Example 14, 1-Isopropylsulfonyl-2-Amino-6-(1-[4-Fluorophenyl]-2-(1-Oxoeth-1-yl)ethen-1-yl)benzimidazole] returned an IC50 of 0.21 µg/mL (≈ 0.523 µM).

For `CC(C)S(=O)(=O)n1c(N)nc2ccc(/C(=N/O)c3ccccc3)cc21` [13 (parent), reference compound], it took 0.05 µg/mL (≈ 0.139 µM) to reach half-maximal inhibition (IC50). The value for `COC(=O)/C=C(/c1ccc2nc(N)n(S(=O)(=O)C(C)C)c2c1)c1cccc(F)c1F` [Example 12] was 0.052 µg/mL (≈ 0.119 µM); that for `CC(=O)/C=C(/c1ccc2nc(N)n(S(=O)(=O)C(C)C)c2c1)c1cccc(F)c1F` [Example 11, Trans 1-Isopropylsulfonyl-2-Amino-6-(1-[2,3-Difluorophenyl]-2-(1-Oxoeth-1-yl)ethen-1-yl)benzimidazole] was 0.048 µg/mL (≈ 0.114 µM); that for `CC(C)S(=O)(=O)n1c(N)nc2ccc(/C(=C/[S+](C)[O-])c3cccc(F)c3F)cc21` (centres unmarked) [Example 10] was 0.394 µg/mL (≈ 0.896 µM). In the case of `COC(=O)/C=C(\c1ccccc1)c1ccc2nc(N)n(S(=O)(=O)C(C)C)c2c1` [12 (parent), reference compound] it was 0.05 µg/mL (≈ 0.125 µM); in that of `CS/C=C(/c1ccc2nc(N)n(S(=O)(=O)C(C)C)c2c1)c1cccc(F)c1F` [Example 9, 1-Isopropylsulfonyl-2-Amino-6-(1-[2,3-Difluorophenyl]-2-Methylsulfidoethen-1-yl)benzimidazole], 0.072 µg/mL (≈ 0.17 µM); in that of `CS/C=C(\c1ccccc1)c1ccc2nc(N)n(S(=O)(=O)C(C)C)c2c1` [9 (parent), reference compound], 2.58 µg/mL (≈ 6.66 µM).
